US8771754B2, “Use of GSK3 inhibitors in combination with radiation therapies” (priority 2004, dated 2014)

System: HT-22 hippocampal neuronal cells
Experiment: Apoptosis assay, Annexin V-FITC and propidium iodide flow cytometry
Type: cell-based, mouse
Details: for radiation-induced apoptosis, cells positive for apoptosis: HT-22, pretreated (LiCl 3 mM 7 days; inhibitor VIII 1 μM or SB415286 25 μM 24 h), 3 Gy, 24 h after irradiation, 3 Gy alone 53%, untreated 8%
Experimental: Apoptosis assays. HT-22 cells were treated with LiCl (3 mM) for 7 days, with GSK3β inhibitor VIII (1 μM) or SB415286 (25 μM) for 24 hours prior to irradiation. Camptothecin (5 μM) was added to the HT-22 cells 6 hours prior to harvest as a positive control for apoptosis. The HT-22 cells with or without the inhibitors were irradiated with 3 Gy and harvested 24 hours post irradiation. Annexin V-FITC (5 ng) and propidium iodide (50 ng) were added to […]. Stained cells were analyzed by flow cytometry. The fraction of cells in each of the four gating windows (Q1-4) was calculated.
Apoptosis was studied in irradiated mouse HT-22 hippocampal neuronal cells pretreated with LiCl, GSK3β inhibitor VIII or SB415286. The fraction of cells in each of the four gating windows (Q1-4) was calculated and tabulated as the mean and SEM of 3 separate experiments. Camptothecin served as positive control for apoptosis and was added to HT-22 cells prior to staining for apoptosis. Camptothecin positive control induced apoptosis in 78.8% of cells. In comparison, 3 Gy irradiation induced apoptosis in 53% of cells, while 8% of untreated control cells stained positive for apoptosis (FIG. 2B). […] Lithium, as a nonspecific neuroprotector, attenuated radiation-induced apoptosis to 21.9% of cells (P=0.01, 3 Gy vs. 3 Gy+LiCl). The radioprotective effect of lithium in HT-22 neuronal cells was also analyzed by morphologic analysis using DAPI staining.

Row | Compound | radiation-induced apoptosis, cells positive for apoptosis [%] | apoptosis induced by positive control (HT-22, camptothecin 5 μM added 6 hours prior to harvest) [%]
1 | COc1ccc(CNC(=O)Nc2ncc([N+](=O)[O-])s2)cc1 [GSK3β inhibitor VIII] | 33.9 | –
2 | O=C1NC(=O)C(c2ccccc2[N+](=O)[O-])=C1Nc1ccc(O)c(Cl)c1 [SB415286] | 41.4 | –
3 | CC[C@@]1(O)C(=O)OCc2c1cc1n(c2=O)Cc2cc3ccccc3nc2-1 [Camptothecin] | – | 78.8
